From publication PMC7932537, “Quantitative profiling of protease specificity” (PLoS Computational Biology, 2021)

Experiments:
MMP-2 = test: Substrate phage display with NGS: relative probability (RP) of P3-P1' tetramer clusters; assay type: biochemical, human; settings: for relative probability (RP) of matching tetramer: P3-P1' tetramer matching the MS detected MMP2 cleavage sequence, RP_above_4.5; for avg_RP: MMP2 - no binning, redundant tetramers have been averaged out
MMP-9 = test: as above; assay type: biochemical, human
[1] = RP of the P3-P1' tetramer cluster contained in the hexamer, 200 nM MMP-2, 2 h, 37°C, two rounds of selection
[2] = MMP9, RP of the P3-P1' tetramer contained in the hexamer substrate (substrate phage display, NGS)
[3] = normalized RP of matching tetramer, unique part of MMP2 selectome
[4] = MMP2, RP of matching P3-P1' tetramer, common set of MMP2-9 selectome, RP above KL threshold
[5] = MMP9, RP of matching P3-P1' tetramer, common set of MMP2-9 selectome
[6] = RP of the P3-P1' tetramer, MMP2 substrate phage display/NGS, tetramers of physiologic MEROPS substrates common to MMP2 and MMP9
[7] = RP of the P3-P1' tetramer, MMP9 substrate phage display/NGS, tetramers of physiologic MEROPS substrates common to MMP2 and MMP9
[8] = RP of matching tetramer, common MMP2-9 selectome
[9] = MMP9, RP of the P3-P1' tetramer matching the MS detected cleavage, RP above 4.7, substrate phage display with NGS
[10] = RP of matching tetramer, common MMP2-9 selectome, RP above KL threshold
[11] = RP according to MMP2, P3-P1' tetramer of unique physiologic MMP2 substrates from MEROPS
[12] = RP according to MMP9, P3-P1' tetramer of unique physiologic MMP9 substrates from MEROPS
[13] = average relative probability (RP) of the P3-P1' tetramer

Row | Substance | relative probability (RP) (MMP-2; [1]) | relative probability (RP) (MMP-9; [2]) | relative probability (RP) (acc.to MMP2) (MMP-2; [6]) | relative probability (RP) (acc.to MMP9) (MMP-9; [7]) | other results
1 | PAGVKA | 28.6381 | 31.0803 | – | – | –
2 | NAQL | – | – | – | – | relative probability (RP) of matching tetramer (MMP-2): 9.69; relative probability (RP) (acc.to MMP2) (MMP-2; RP of matching tetramer, unique part of MMP2 selectome, RP above KL threshold): 9.69; normalized RP - MMP2 (MMP-2; [3]): 0.2653; relative probability (RP) (acc.to MMP9) (MMP-9; RP of matching tetramer, unique part of MMP2 selectome): 0; normalized RP - MMP9 (MMP-9; [3]): 0
3 | PADF | – | – | – | – | relative probability (RP) (acc.to MMP2) (MMP-2; [4]): 20.44; relative probability (RP) of matching tetramer (MMP-2): 20.44; relative probability (RP) (acc.to MMP9) (MMP-9; [5]): 12.85
4 | APALWI | 24.3606 | 27.3829 | – | – | –
5 | PPGL [P3-P1' tetramer cluster] | – | – | 24.36 | 34.4 | relative probability (RP) (MMP-9; tetramer projected onto MMP-9 cleavage sites determined by Prudova et al. (2010)): 34.4
6 | SKYL | – | – | 4.49 | 0.25 | –
7 | PSSV | – | – | 20.49 | 25.16 | –
8 | GPHGYK | 24.9359 | 44.1642 | – | – | –
9 | AAGV | – | – | 0.76 | 0.05 | –
10 | PPGA | – | – | 0 | 0.07 | –
11 | PVPV | – | – | – | – | relative probability (RP) (acc.to MMP2) (MMP-2; [4]): 23.04; relative probability (RP) of matching tetramer (MMP-2): 23.04; relative probability (RP) (acc.to MMP2) (MMP-2; [8]): 23.04; relative probability (RP) (acc.to MMP9) (MMP-9; [5]): 29.89; relative probability (RP) (MMP-9; [9]): 29.89; relative probability (RP) (acc.to MMP9) (MMP-9; [10]): 29.89
12 | ETPRPW | 32.1109 | 41.1124 | – | – | –
13 | PSQM | – | – | 27.24 | 37.02 | –
14 | PEAI | – | – | 22.52 | 36.36 | –
15 | VSALSS | 32.3417 | 28.865 | – | – | –
16 | PVLL | – | – | – | – | relative probability (RP) (acc.to MMP2) (MMP-2; [4]): 15.16; relative probability (RP) of matching tetramer (MMP-2): 15.16; relative probability (RP) (acc.to MMP2) (MMP-2; [8]): 15.16; relative probability (RP) (acc.to MMP9) (MMP-9; [5]): 19.22; relative probability (RP) (MMP-9; [9]): 19.22; relative probability (RP) (acc.to MMP9) (MMP-9; [10]): 19.22
17 | GQPMNL | 32.5586 | 48.9575 | – | – | –
18 | PSLQ | – | – | 7.65 | 1.54 | MMP2 relative probability (RP) (MMP-2; MMP2 tetramers from unique substrates, unrounded values): 7.654; Relative probability (RP) rank (MMP-2; [11]): 6015; relative probability (RP) (MMP-2; [11]): 7.65; corresponding MMP9 relative probability (RP) (MMP-9; MMP2 tetramers from unique substrates, RP of same tetramer for MMP9): 1.544; Relative probability (RP) rank (MMP-9; [12]): 11624; relative probability (RP) (MMP-9; [12]): 1.54
19 | KSPQAM | 28.5429 | 47.1106 | – | – | –
20 | PLNV | – | – | – | – | avg_RP (MMP-2; average relative probability of the P3-P1' tetramer): 24.9266; relative probability (RP) (acc.to MMP2) (MMP-2; [4]): 24.93; relative probability (RP) of matching tetramer (MMP-2): 24.93; relative probability (RP) (acc.to MMP2) (MMP-2; [8]): 24.93; relative probability (RP) (acc.to MMP9) (MMP-9; [5]): 43.38; relative probability (RP) (MMP-9; [9]): 43.38; relative probability (RP) (acc.to MMP9) (MMP-9; [10]): 43.38
21 | NRPNNL | 27.0562 | 38.7188 | – | – | –
22 | SIPLPL | 35.0814 | 49.0268 | – | – | –
23 | PRPQAA | 27.2115 | 37.3898 | – | – | –
24 | ARGI | – | – | – | – | avg_RP (MMP-2; [13]): 21.2616; relative probability (RP) (acc.to MMP2) (MMP-2; [8]): 21.26; relative probability (RP) (MMP-9; [9]): 31.4; relative probability (RP) (acc.to MMP9) (MMP-9; [10]): 31.4
25 | LANM | – | – | 31.41 | 5.47 | avg_RP (MMP-2; [13]): 31.4114
26 | SAAQPL | 14.4283 | 28.189 | – | – | –
